Measurements taken from patent US10450572B2, “Androgen receptor variant inhibitors and methods of using” (Regents of the University of Minnesota, priority 2016, dated 2019).
“Also recorded” adds a separate entry of the source. {Fluorescein} = fluorescein label

Legend:
AR-FL [1] = experiment: AR subcellular fractionation and western blot; format: cell-based, human; conditions: 22Rv1-undup3 cells; 1 nM, 24 hours; FIG. 8
Method: For AR subcellular fractionation, 22Rv1-undup3 cells were seeded in RPMI medium supplemented with 10% CSS for 24 hours and treated with either ethanol (vehicle) or 1 nM mibolerone (synthetic androgen) for 24 hours. Cells were washed with 1×PBS, harvested in hypotonic buffer, and subjected to subcellular fractionation as described elsewhere (see, e.g., Chan et al., 2012, J. Biol. Chem., 287:19736-49). Lysates in 1× Laemmli buffer were loaded in equal volumes on either 7.5% or 4-15% polyacrylamide gels (Biorad TGX) and electrophoresed at 200v for 30 minutes.
Blots were incubated with antibodies specific to CPSF1 (Bethyl, A301-580, 1:1000), AR (Santa Cruz Santa Cruz Biotechnology N-20, 1:2000), extracellular signal-regulated kinase-2 (ERK-2; Santa Cruz Biotechnology D-2, 1:4000), and AR-V7 (Precision Antibodies, 1:1000). HRP-conjugated goat-anti-mouse (#sc 2005, lot#D1515), and goat-anti-rabbit (#sc 2004, lot#B1315) secondary antibodies were obtained from Santa Cruz and were used at 1:10000 dilutions. Blots were incubated in enhanced chemiluminescence substrate (WesternBright, Advansta #K12045-D50 or SuperSignal West Pico, Thermo #1859674) and exposed to X-ray film for chemiluminescence detection.

full-length AR (AR-FL) = experiment: full-length AR expression in E43 cells; format: cell-based; conditions: E43 cells transfected with CE3 pAM; FIG. 3A
Method: (§1) E43 cells were cultured in RPMI-1640 and supplemented with 10% FBS and 500 μg/mL penicillin/streptomycin. For androgen blockade experiments, E43 cells were cultured in RPMI-1640 supplemented with 10% charcoal stripped FBS and 500 μg/mL penicillin/streptomycin. Transient transfections were performed using a BTX Square Wave electroporator. Transient transfection of E43 cells with the indicated concentration of CE3 pAM were carried out in RPMI-1640 supplemented with 10% FBS, and subsequently plated in appropriate culture medium. When appropriate, E43 cells were treated with 10 μM enzalutamide (MDV-3100, Selleck Chemicals) in indicated cell culture medium. E43 cells in cell culture medium were treated with vivo-CE3 pAM in 1X phosphate buffered saline at the indicated concentrations.

22Rv1 cells = experiment: crystal violet growth assay of 22Rv1 cells; format: cell-based, human; conditions: parental 22Rv1 cells transfected with 10 μM; androgen-deplete conditions; FIG. 11D
Method: (§2) 22Rv1 cells (CRL-2505) were obtained from ATCC (Manassas, Va., USA) and cultured according to ATCC protocol. LNCaP95 cells were cultured in phenol red free RMPI 1640 (Invitrogen) supplemented with 10% fetal bovine serum and 1× penicillin/streptomycin. VCaP cells (ATCC CRL-2876) were cultured in DMEM medium (Invitrogen) supplemented with 10% fetal bovine serum and 1× penicillin/streptomycin. ATCC authenticates human cell lines using short tandem repeat analysis. Cell lines were routinely monitored for mycoplasma infection by regularly evaluating aliquots of supernatants from cells in culture for mycoplasma contamination using a PCR-based method as described elsewhere (see, e.g., Uphoff et al., 2012, J. Biomed. Biotechnol., 2012:267678).
GeneTools' design tool was used to design a 25-mer consisting of the sequence 5′-[…]-3′ (SEQ ID NO:2) targeted to the CE3 PAS (CE3 pAM). As a control, a standard commercially available nontargeting control morpholino was used (GeneTools). […]
(§3) Electroporated 22Rv1 cells and sublines were seeded at 20,000 cells per well in 24 well dishes in RPMI 1640 supplemented with 10% charcoal-stripped FBS. […] Crystal violet staining assays were performed as described elsewhere (see, e.g., Li et al., 2013, Cancer Res., 73:483-9) and absorbance was measured at 560 nm. Significance was assessed by two tailed t-tests in GraphPad.

AR mRNA = experiment: specificity test with morpholinos tiling the CE3 PAS: AR mRNA; format: cell-based, human; conditions: 22Rv1 cells; 10 μM morpholino, 24 hours after transfection; FIG. 19B
Method: (§4) GeneTools' design tool was used to design morpholinos targeting upstream and downstream regions of AR CE3. Sequences were as follows:
(§5) 22Rv1 cells were transfected with 10 μM control and morpholinos tiling upstream (us) and downstream (ds) of the CE3 PAS (us 100, us 50, CE3 pAM, ds 50, ds 150).
(§6) Total RNA from tumor tissue was purified using the Promega Reliaprep Tissue kit according to manufacturer instructions, including the on-column DNAse treatment. RNA was eluted in nuclease free water. Reverse transcription and quantitative PCR were performed as described in Example 2. Data were analyzed using the ΔΔCt method and normalized to actin-2 (internal control).

22Rv1-undup3 cells = experiment: crystal violet growth assay of 22Rv1-undup3 cells; format: cell-based, human; conditions: 22Rv1-undup3 cells transfected with 10 μM, FIG. 11D
Method: as §2
Cell/siRNA mixtures were electroporated in a 4-mm gap-width cuvette (BTX) with a BTX Square Wave Electroporator (22Rv1 and sublines: 350 V, 10 ms pulse, LNCaP95: 305 V, 10 ms pulse). Following a 15-minute recovery, cells were seeded in appropriate culture medium. […]
as §3

AR-V proteins = experiment: AR-V protein expression in E43 cells (western blot); format: cell-based; conditions: E43 cells transfected with CE3 pAM; FIG. 3A
Method: as §1

[2] = test system: AR-V7, AR-V9 (EX3:CE5), AR-V1 (EX3:CE1), AR-V6 (EX3:CE2a); experiment: AR-V mRNA and protein expression after morpholino transfection (RT-qPCR, western blot); format: cell-based, human; conditions: FIG. 11C
Method: as §2, with “2012:267678). […]” for “2012:267678).”
(§7) RNA was isolated from cells using the Reliaprep RNA Miniprep System (Promega) and purified according to kit manufacturer instructions, including a 30-minute room temperature DNase treatment. […] RNA concentration and integrity were assessed by denaturing gel electrophoresis or by spectrophotometry with a NanoDrop 2000 (ThermoFisher). […]
(§8) Quantitative PCR was performed using Quanta PerfeCTa master mix, 200 nM forward and reverse primers, and 2 μL input cDNA (serially diluted in nuclease free water 1:50 for 18S samples) in 20 μL reactions. […] Cycle thresholds (Ct) were determined using the Biorad CFX manager software. […]

[3] = test system: AR-V2, AR-V5, AR-V7, and AR-V9 mRNA; experiment: AR-V mRNA expression in E43 cells; format: cell-based; conditions: E43 cells transfected with CE3 pAM; FIG. 3B
Method: as §1

AR-V7 mRNA = experiment: specificity test with morpholinos tiling the CE3 PAS: AR-V7 mRNA; format: cell-based, human; conditions: 22Rv1 cells; 10 μM morpholino, 24 hours after transfection; FIG. 19B
Method: as §4, §5, §6

AR-FL [4] = experiment: AR-FL expression after morpholino transfection; format: cell-based, human; conditions: FIG. 11C
Method: as §2, with “2012:267678). […]” for “2012:267678).”
as §7, §8

E43 cells = experiment: crystal violet growth assay of E43 cells; format: cell-based; conditions: FIG. 3C; for cell growth (crystal violet staining): E43 cells
Method: as §1
20,000 E43 cells transfected with 10 μM CE3 pAM or control morpholino were plated in 24-well dishes in the indicated culture medium and subjected to the indicated drug treatments. Crystal violet assays were performed on cells on days 2, 4, 6, 8, 11, and 14. Briefly, cells were fixed in 1% glutaraldehyde in 1X PBS and stained with 0.5% crystal violet in distilled water. At the end of the timecourse, fixed and stained cells were subjected to treatment with Sorenson's buffer (6.1 ml of 0.1 M disodium citrate, 3.9 ml of 0.1N HCl, and 10 ml of 95% ethanol) to release dye. Absorbance was measured at 560 nm.

[5] = 22Rv1-undup3 cells transfected with 10 μM
[6] = 22Rv1 cells transfected with 10 μM

Compound	nuclear localization of AR-FL (AR-FL [1])	expression of full-length AR (AR-FL) (full-length AR (AR-FL))	growth (crystal violet) (22Rv1 cells)	AR mRNA levels (AR mRNA)	growth (crystal violet) (22Rv1-undup3 cells; androgen-deplete conditions)	growth (crystal violet) (22Rv1-undup3 cells; androgen-replete conditions (1 nM DHT))	expression of AR-V proteins (AR-V proteins)	mRNA and protein expression of AR-V7, AR-V9, AR-V1, AR-V6 [2, 5]	mRNA and protein expression of AR-V7, AR-V9, AR-V1, AR-V6 [2, 6]	expression of AR-V2, AR-V5, AR-V7, and AR-V9 mRNA [3]	AR-V7 mRNA levels (AR-V7 mRNA)	expression of AR-FL (AR-FL [4]; [5])	expression of AR-FL (AR-FL [4]; [6])	reduction in cell growth assessed by crystal violet staining (E43 cells; E43 cells transfected, charcoal stripped serum, plus 10 uM enzalutamide) [%]	cell growth (crystal violet staining) (E43 cells; 10 μM morpholino transfected, maximum androgen blockade castration+enzalutamide)	cell growth (crystal violet staining) (E43 cells; transfected, androgenic conditions)
C[C@@H]1CC2=CC(=O)CC[C@@H]2[C@H]2CC[C@@]3(C)[C@@H](CC[C@]3(C)O)[C@@H]21 [mibolerone]	strong nuclear localization; also recorded: localizes to the nucleus															
CE3 pAM: 25-mer morpholino 5′-GTGTATTAATGGCTTTATTAAGGGA-3′ (SEQ ID NO:2) designed to block the AR CE3 poly A signal (all phosphorodiamidate morpholino (PMO), 3' {Fluorescein}; further chemistry not fully specified)		increase expression	reduction in growth	increased	reduction in growth	inhibited growth	blocks; also recorded: dramatically reduced	reduction	reduction	blocks; also recorded: blocked expression	reduced	increase	increase	~50	blocks growth; also recorded: inhibited cell growth	not under androgenic conditions
